Target: S. pneumoniae Topoisomerase IV ATPase (ParE) (Streptococcus pneumoniae serotype 4, UniProt Q59961)
Test: S. pneumoniae Topoisomerase IV ATPase inhibition
Format: biochemical
Conditions: values marked * are an average of two or more data points, read-out: % Inh (13 μM) of S. pneumoniae Topoisomerase IV ATPase
In short: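 Phosphate-release ATPase assay: 1.25 nM ParE, 160 μM ATP, DNA-stimulated. Quench with malachite green/molybdate in 1 M HCl, read 650 nm; IC50 from 10-point dose series.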

Chain of S. pneumoniae Topoisomerase IV ATPase (ParE) (Q59961 whole entry): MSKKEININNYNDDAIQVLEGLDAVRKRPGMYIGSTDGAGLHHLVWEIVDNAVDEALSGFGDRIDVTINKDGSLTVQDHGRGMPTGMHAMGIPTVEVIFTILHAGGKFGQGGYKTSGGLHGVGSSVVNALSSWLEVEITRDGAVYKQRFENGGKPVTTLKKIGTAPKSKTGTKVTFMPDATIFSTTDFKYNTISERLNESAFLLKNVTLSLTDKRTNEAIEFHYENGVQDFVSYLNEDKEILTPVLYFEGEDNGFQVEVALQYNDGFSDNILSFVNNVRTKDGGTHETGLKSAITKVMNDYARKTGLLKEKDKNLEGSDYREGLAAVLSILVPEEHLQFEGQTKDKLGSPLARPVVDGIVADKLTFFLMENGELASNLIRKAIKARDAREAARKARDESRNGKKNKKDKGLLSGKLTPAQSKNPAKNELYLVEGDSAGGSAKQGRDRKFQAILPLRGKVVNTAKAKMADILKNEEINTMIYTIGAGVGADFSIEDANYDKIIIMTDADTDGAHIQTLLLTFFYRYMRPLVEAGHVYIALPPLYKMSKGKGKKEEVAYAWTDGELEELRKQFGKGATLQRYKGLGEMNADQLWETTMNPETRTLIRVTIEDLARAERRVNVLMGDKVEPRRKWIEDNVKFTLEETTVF

| Structure (SMILES) | inhibition at 13 µM |
| --- | --- |
| Cc1cc(C)n(-c2nc(Nc3ccc(F)c(Cl)c3)ncc2-c2cncc(C(=O)O)c2)n1 [Example 316, 5-{2-[(3-chloro-4-fluorophenyl)amino]-4-(3,5-dimethyl-1H-pyrazol-1-yl)pyrimidin-5-yl}pyridine-3-carboxylic acid] | 80% |
| CC1CN(c2nc(Nc3ccc(F)c(Cl)c3)ncc2-c2cncc(C(=O)O)c2)CC(C)O1 (centres unmarked) [Example 272, 5-(2-(3-chloro-4-fluorophenylamino)-4-(2,6-dimethylmorpholino)-pyrimidin-5-yl)nicotinic acid] | 81.1% |
| COc1ncc(-c2cnc(Nc3ccc(F)c(Cl)c3)nc2NC2CCOC2)cn1 (centres unmarked) [Example 940, N2-(3-chloro-4-fluorophenyl)-2′-methoxy-N4-(tetrahydrofuran-3-yl)-5,5′-bipyrimidine-2,4-diamine] | 76% |
| CCN(CC)S(=O)(=O)c1cncc(-c2cnc(Nc3ccc(F)c(Cl)c3)nc2-n2nc(C(F)(F)F)cc2C)c1 [Example 1034] | 96% |
| CN(C)CCCNc1nc(Nc2ccc(F)c(Cl)c2)ncc1-c1cccc(/C=C/C(=O)O)c1 [Example 29, (2E)-3-[3-(2-[(3-chloro-4-fluorophenyl)amino]-4-{[3-(dimethylamino)propyl]-amino}pyrimidin-5-yl)phenyl]prop-2-enoic acid] | 99.7% |
| COc1cc(F)cc(Nc2ncc(-c3ccc(C(=O)O)s3)c(-n3ccc(C(F)(F)F)n3)n2)c1 [Example 887, 5-(2-(3-fluoro-5-methoxyphenylamino)-4-(3-(trifluoromethyl)-1H-pyrazol-1-yl)pyrimidin-5-yl)thiophene-2-carboxylic acid] | 100% |
| O=C(O)/C=C/c1cccc(-c2cnc(Nc3ccc(F)c(Cl)c3)nc2-n2cccc2)c1 [Example 315, (2E)-3-(3-{2-[(3-chloro-4-fluorophenyl)amino]-4-(1H-pyrrol-1-yl)pyrimidin-5-yl}phenyl)prop-2-enoic acid] | 62.8% |
| COc1cc(Nc2ncc(-c3cnc(OC)c(-c4nnn[nH]4)c3)c(-n3nc(C(F)(F)F)cc3C)n2)cc(OC)c1 [Example 873, N-(3,5-dimethoxyphenyl)-5-(6-methoxy-5-(1H-tetrazol-5-yl)pyridin-3-yl)-4-(5-methyl-3-(trifluoromethyl)-1H-pyrazol-1-yl)pyrimidin-2-amine] | 100% |
| COc1cc(Nc2ncc(-c3cnc(OCCNC(C)=O)c(C(=O)NS(C)(=O)=O)c3)c(-n3nc(C(F)(F)F)cc3C)n2)cc(OC)c1 [Example 969, 2-(2-acetamidoethoxy)-5-(2-(3,5-dimethoxyphenylamino)-4-(5-methyl-3-(trifluoromethyl)-1H-pyrazol-1-yl)pyrimidin-5-yl)-N-(methylsulfonyl)nicotinamide] | 100% |
| COc1cc(C)cc(Nc2ncc(-c3cncc(C(=O)O)c3)c(-n3ccc(C(F)(F)F)n3)n2)c1 [Example 776, 5-{2-[(3-methoxy-5-methylphenyl)amino]-4-[3-(trifluoromethyl)-1H-pyrazol-1-yl]pyrimidin-5-yl}pyridine-3-carboxylic acid] | 100% |
| O=C(O)[C@@H]1C[C@H]1c1cccc(-c2cnc(Nc3ccc(F)c(Cl)c3)nc2-n2ccc(C(F)(F)F)n2)c1 (racemic) [Example 574, (1,2-trans)-2-(3-(2-(3-chloro-4-fluorophenylamino)-4-(3-(trifluoromethyl)-1H-pyrazol-1-yl)pyrimidin-5-yl)phenyl)cyclopropanecarboxylic acid] | 96% |
| CN(C)CCCNc1nc(Nc2cc(C(F)(F)F)cc(C(F)(F)F)c2)ncc1-c1ccc(C(=O)O)s1 [Example 341, 5-(2-(3,5-bis(trifluoromethyl)phenylamino)-4-(3-(dimethylamino)propylamino)pyrimidin-5-yl) thiophene-2-carboxylic acid] | 87.2% |
| CN(C)CCCNc1nc(Nc2ccc(F)c(Cl)c2)ncc1-c1cncc(C(=O)O)c1 [Example 214, 5-(2-(3-chloro-4-fluorophenylamino)-4-(3-(dimethylamino)propylamino)pyrimidin-5-yl)nicotinic acid] | 101% |
| CC(C)Nc1nc(Nc2ccc(F)c(Cl)c2)ncc1-c1cncc(C(=O)O)c1 [Example 243, 5-[2-[(3-chloro-4-fluorophenyl)amino]-4-(propan-2-ylamino)pyrimidin-5-yl]pyridine-3-carboxylic acid] | 83.5% |
| N#Cc1cc(F)cc(Nc2ncc(-c3cccc(/C=C/C(=O)O)c3)c(N3CCOCC3)n2)c1 [Example 407, (E)-3-{3-[2-(3-Cyano-5-fluoro-phenylamino)-4-morpholin-4-yl-pyrimidin-5-yl]-phenyl}-acrylic acid] | 86% |
| Cc1ccc(S(=O)(=O)n2ccc3cc(Nc4ncc(-c5cncc(C(=O)O)c5)c(-n5nc(C(F)(F)F)cc5C)n4)ccc32)cc1 [Example 667, 5-{2-({1-[(4-methylphenyl)sulfonyl]-1H-indol-5-yl}amino)-4-[5-methyl-3-(trifluoromethyl)-1H-pyrazol-1-yl]pyrimidin-5-yl}pyridine-3-carboxylic acid] | 56% |

| Structure (SMILES) | inhibition at 13 µM |
| --- | --- |
| Cc1cc(C(F)(F)F)nn1-c1nc(Nc2ccc(F)c(Cl)c2)ncc1-c1cncc(S(C)(=O)=O)c1 [Example 989, N-(3-chloro-4-fluorophenyl)-4-(5-methyl-3-(trifluoromethyl)-1H-pyrazol-1-yl)-5-(5-(methylsulfonyl)pyridin-3-yl)pyrimidin-2-amine] | 100% |
| Cc1cc(C)cc(Nc2ncc(-c3cccc(/C=C/C(=O)O)c3)c(-n3ccc(C(F)(F)F)n3)n2)c1 [Example 617, (2E)-3-(3-{2-[(3,5-dimethylphenyl)amino]-4-[3-(trifluoromethyl)-1H-pyrazol-1-yl]pyrimidin-5-yl}phenyl)prop-2-enoic acid] | 100% |
| CCOC(=O)c1cncc(-c2cnc(Nc3ccc(F)c(Cl)c3)nc2N2CCC(C(=O)NC)CC2)c1 [Example 120, ethyl 5-[2-[(3-chloro-4-fluorophenyl)amino]-4-[4-(methylcarbamoyl)piper-idin-1-yl]pyrimidin-5-yl]pyridine-3-carboxylate] | 73.9% |
| CN(C)CCCNc1nc(Nc2ccc(F)c(Cl)c2)ncc1-c1ccc(C(=O)O)cc1 [Example 216, 4-(2-[(3-chloro-4-fluorophenyl)amino]-4-{[3-(dimethylamino)propyl]amino}pyrimidin-5-yl)benzoic acid] | 96.3% |
| COCCNc1nc(Nc2ccc(F)c(Cl)c2)ncc1-c1cncnc1 [Example 50, N^2-(3-chloro-4-fluorophenyl)-N^4-(2-methoxyethyl)-5-pyrimidin-5-ylpyrimidine-2,4-diamine] | 77.8% |
| CS(=O)(=O)CCn1cc(-c2cnc(Nc3ccc(F)c(Cl)c3)nc2-n2ccc(C(F)(F)F)n2)cc(C(=O)O)c1=O [Example 1091, 5-(2-(3-Chloro-4-fluorophenylamino)-4-(3-(trifluoromethyl)-1H-pyrazol-1-yl)pyrimidin-5-yl)-1-(2-(methylsulfonyl)ethyl)-2-oxo-1,2-dihydropyridine-3-carboxylic acid] | 100% |
| Fc1ccc(Nc2ncc(-c3cncnc3)c(N3CCC(F)CC3)n2)cc1Cl [Example 64, N-(3-chloro-4-fluorophenyl)-4-(4-fluoropiperidin-1-yl)-5-pyrimidin-5-ylpyrimidin-2-amine] | 65.4% |
| N#Cc1cc(Cl)cc(Nc2ncc(-c3cncc(C(=O)O)c3)c(N3CCOCC3)n2)c1 [Example 392, 5-[2-(3-Chloro-5-cyano-phenylamino)-4-morpholin-4-yl-pyrimidin-5-yl]-nicotinic acid] | 74% |
| CN(C)CCCNc1nc(Nc2ccc(F)c(Cl)c2)ncc1-c1cccc(NS(C)(=O)=O)c1 [Example 3, N-(3-(2-(3-chloro-4-fluorophenylamino)-4-(3-(dimethylamino)propylamino)pyrimidin-5-yl)phenyl)methanesulfonamide] | 56.8% |
| N#Cc1cc(Cl)cc(Nc2ncc(-c3cccc(/C=C/C(=O)O)c3)c(N3CCOCC3)n2)c1 [Example 408, (E)-3-{3-[2-(3-Chloro-5-cyano-phenylamino)-4-morpholin-4-yl-pyrimidin-5-yl]-phenyl}-acrylic acid] | 100% |
| COc1ncc(-c2cnc(Nc3cc(C)cc(C#N)c3)nc2-n2ccc(C(F)(F)F)n2)cc1C(=O)O [Example 780, 5-{2-[(3-cyano-5-methylphenyl)amino]-4-[3-(trifluoromethyl)-1H-pyrazol-1-yl]pyrimidin-5-yl}-2-methoxypyridine-3-carboxylic acid] | 100% |
| CC1CCC(C)N1c1nc(Nc2ccc(F)c(Cl)c2)ncc1-c1cncc(C(=O)O)c1 (centres unmarked) [Example 252, 5-[2-[(3-chloro-4-fluorophenyl)amino]-4-(2,5-dimethylpyrrolidin-1-yl)pyrimidin-5-yl]pyridine-3-carboxylic acid] | 81.8% |
| O=C(O)/C=C/c1cccc(-c2cnc(Nc3ccc(F)c(Cl)c3)cc2N2CCOCC2)c1 [Example 1129] | 83% |
| CCOC(=O)c1ccc(-c2cnc(Nc3ccc(F)c(Cl)c3)nc2NCCCN(C)C)cc1 [Example 6, Ethyl 4-(2-(3-chloro-4-fluorophenylamino)-4-(3-(dimethylamino)propylamino)pyrimidin-5-yl)benzoate] | 102% |
| CCn1cc(-c2cnc(Nc3ccc(F)c(Cl)c3)nc2-n2nc(C(F)(F)F)cc2C)cc(C(=O)O)c1=O [Example 1086, 5-(2-(3-Chloro-4-fluorophenylamino)-4-(5-methyl-3-(trifluoromethyl)-1H-pyrazol-1-yl)pyrimidin-5-yl)-1-ethyl-2-oxo-1,2-dihydropyridine-3-carboxylic acid] | 92% |
| Cc1cc(C(F)(F)F)nn1-c1nc(Nc2ccc(F)c(Cl)c2)ncc1-c1cncc(C(=O)NCCN2CCOCC2)c1 [Example 932, 5-(2-(3-chloro-4-fluorophenylamino)-4-(5-methyl-3-(trifluoromethyl)-1H-pyrazol-1-yl)pyrimidin-5-yl)-N-(2-morpholinoethyl) nicotinamide] | 100% |
